From patent US8628938B2, “Polynucleotide encoding UDP-glucuronyl transferase” (Suntory Holdings Limited, priority 2007, dated 2014)

Experiments:
S1UGT = assay: UDP-glucuronosyltransferase activity assay (HPLC) with recombinant S1UGT; assay type: biochemical, Scutellaria laeteviolacea v. yakusimensis; settings: 100 μM glycosyl acceptor substrate, 2 mM UDP-glucuronic acid, pH 7.5, 30° C., 30 minutes
Protocol: (§1) Escherichia coli BL21 (DE3) was transformed with each plasmid obtained in 4-(1) above. The transformant obtained was shake cultured overnight at 37° C. in 4 ml of LB medium (10 g/l tryptone, 5 g/l yeast extract, 1 g/l NaCl) supplemented with 50 μg/ml of ampicillin. The culture broth, 4 ml, which reached the stationary phase, was inoculated into 80 ml of the medium with the same composition, followed by shake culture at 37° C. When the cell turbidity (OD600) reached approximately 0.5, 0.4 mM IPTG (isopropyl-β-thiogalactopyranoside) in a final concentration was added to the medium, followed by shake culture at 22° C. for 20 hours. All of the subsequent procedures were performed at 4° C. The transformants cultured were centrifuged (7,000×g, 15 mins.) to collect the cells, and 2 ml/g cell of Buffer S (20 mM sodium phosphate buffer (pH 7.4), 20 mM imidazole, 0.5 M NaCl, 14 mM β-mercaptoethanol) was added to the cells for suspension. Subsequently, ultrasonication was performed (15 secs.×8) followed by centrifugation (15,000×g, 10 mins.). To the supernatant obtained, 0.12% (w/v) polyethyleneimine in a final concentration was added to […], which was then allowed to stand for 30 minutes. The mixture was centrifuged (15,000×g, 10 mins.) and the supernatant was recovered as a crude enzyme solution. The crude enzyme solution was applied to His SpinTrap (GE Healthcare), which had been equilibrated with Buffer S, and centrifuged (70×g, 30 secs.). After washing with 600 μl of Buffer S, the protein bound to the column was stepwise eluted with 600 μl each of Buffer S containing 100, 200 and 500 mM imidazole. The buffer in each fraction eluted was replaced by 20 mM potassium phosphate buffer (pH 7.5) containing 14 mM β-mercaptoethanol, using Microcon YM-30 (Amicon). […] These fractions were mixed and used for analysis.
(§2) Standard reaction conditions are as follows. A reaction solution (2 mM UDP-glucuronic acid, 100 μM glycosyl acceptor substrate, 50 mM potassium phosphate buffer (pH 7.5), enzyme solution), 50 μl, was prepared and the enzyme solution was added to initiate the reaction at 30° C. for 30 minutes. The reaction was stopped by adding 50 μl of 0.5% TFA in CH3CN and provided for HPLC analysis. The conditions for HPLC are as follows: column, Develosil C30-UG-5 (4.6×150 mm); eluant A, 0.1% TFA/H2O; eluant B, 0.08% TFA/90% CH3CN; conditions A for elution (except for aurone, catechin, coumarine and phenylpropanoid), 0 min/5% B→18 min/100% eluant B'18.1 min/5% B→25 min/5% B; conditions B for elution (aurone, catechin, coumarine and phenylpropanoid), 0 min/5% B→20 min/50% eluant B→20.5 min/5% B→25 min/5% B; flow rate, 1 ml/min; detection wavelength: 280 and 350 nm.

AmUGTcg10 = assay: UDP-glucuronosyltransferase activity assay (HPLC) with recombinant AmUGTcg10; assay type: biochemical, Antirrhinum majus; settings: 100 μM glycosyl acceptor substrate, 2 mM UDP-glucuronic acid, pH 7.5, 30° C., 30 minutes
Protocol: as §1, §2

Sb7GAT = settings: enzyme purified from Scutellaria baicalensis; Nagashima et al. 2000; cited from earlier work
PfUGT50 = assay: UDP-glucuronosyltransferase activity assay (HPLC) with recombinant PfUGT50; assay type: biochemical, Perilla frutescens; settings: 100 μM glycosyl acceptor substrate, 2 mM UDP-glucuronic acid, pH 7.5, 30° C., 30 minutes
Protocol: as §1, §2

SiUGT23 = assay: UDP-glucuronosyltransferase activity assay (HPLC) with recombinant SiUGT23; assay type: biochemical, Sesamum indicum; settings: 100 μM glycosyl acceptor substrate, 2 mM UDP-glucuronic acid, pH 7.5, 30° C., 30 minutes
Protocol: as §2
cDNA containing full-length ORF of SiUGT23 derived from Sesamum indicum was amplified by a gene-specific primer set (SEQ ID NOs: 24 and 25). cDNA synthesized using total RNA extracted from sesame seeds was used as a template. SiUGT23 was incorporated into Escherichia coli expression vector as in UGT of Perilla frutescens, Scutellaria laeteviolacea v. yakusimensis and Antirrhinum majus in EXAMPLE 1 and recombinant SiUGT23 protein was expressed in the same way to assay the enzyme activity.

O=c1cc(-c2ccc(O)cc2)oc2cc(O)cc(O)c12 [apigenin]
relative activity to each substrate, taking the activity to scutellarein as 100% (S1UGT): 3%
relative activity to each substrate, taking the activity to scutellarein as 100% (AmUGTcg10): 40%
action of Sb7GAT on the substrate (Sb7GAT): does not act
relative activity to each substrate, taking the activity to scutellarein as 100% (PfUGT50): 44%
relative activity to each substrate, taking the activity to scutellarein as 100% (SiUGT23): 7%

O=c1cc(-c2ccccc2)oc2cc(O)c(O)c(O)c12 [baicalein]
relative activity to each substrate, taking the activity to scutellarein as 100% (S1UGT): 63%
relative activity to each substrate, taking the activity to scutellarein as 100% (AmUGTcg10): 22%
action of Sb7GAT on the substrate (Sb7GAT): acts
relative activity to each substrate, taking the activity to scutellarein as 100% (PfUGT50): 73%
relative activity to each substrate, taking the activity to scutellarein as 100% (SiUGT23): 24%

O=c1cc(-c2ccc(O)c(O)c2)oc2cc(O)cc(O)c12 [luteolin]
relative activity to each substrate, taking the activity to scutellarein as 100% (S1UGT): 0.6%
relative activity to each substrate, taking the activity to scutellarein as 100% (AmUGTcg10): 34%
action of Sb7GAT on the substrate (Sb7GAT): does not act
relative activity to each substrate, taking the activity to scutellarein as 100% (PfUGT50): 41%
relative activity to each substrate, taking the activity to scutellarein as 100% (SiUGT23): 29%

O=c1c(O)c(-c2ccc(O)c(O)c2)oc2cc(O)cc(O)c12 [quercetin]
relative activity to each substrate, taking the activity to scutellarein as 100% (S1UGT): 1%
relative activity to each substrate, taking the activity to scutellarein as 100% (AmUGTcg10): 4%
action of Sb7GAT on the substrate (Sb7GAT): not
relative activity to each substrate, taking the activity to scutellarein as 100% (PfUGT50): 26%
relative activity to each substrate, taking the activity to scutellarein as 100% (SiUGT23): 4%
